Patent US20030092692A1, “Cytoprotective steroids (II)” (priority 2000, published 2003)

Key:
[1] = tested on: NMDA receptors; settings: cited from earlier work
[2] = tested on: Rat cortical neurons; test: Glutamate induced neuronal cell death of primary cortical cultures (LDH release); format: cell-based, Wistar rat; settings: for effect on normal cell death: without glutamate
Description: Rat cortical neurons were cultured by modification of the methods of Dichter (1973) Brain Res 149, p279-293 and Durkin et al (1996) J. Neurochem 66, p951-962. A female Wistar rat (Janvier, Le Genest-St-Isle, France: ref RJ WAF151) of 17 days gestation was killed by cervical disclocation, the foetuses removed on embryonoic day 17 and brains removed and placed in ice-cold calcium/magnesium free Hanks balanced salt solution (HBSS: Gibco Life Technologies, Cergy-Pontoise, France: ref 14170-088 batch 302790). Each cortex was dissected and meninges were carefully removed.
The cortical neurons were dissociated by trypsinization for 5 minutes at 37° C. (trypsin: 0.5 mg/ml: Difco, LPCR, Strasbourg: ref 0152-14 batch 128856JC) and the reaction stopped by addition of HBSS containing calcium and magnesium (HBSS+ Gibco ref 24020-091; batch 3010598) with 10% of fetal bovine serum FBS; Gibco; ref 1027-098; batch 40Q1681K and 1 mg/ml DNase I (Boehringer Mannheim, Meylan, France; ref 1284938; batch 14880300).
The suspension was triturated with a 10 ml pipette (stripette Costar, Dutscher, Brumath, France) and was added in a centrifuge tube (Tube 50 ml Corning, Dutscher) containing 20 ml HBSS^− with 3.5% of BSA (Sigma, L'Isle D'Abeau Chesnes, ref. A6003, batch 29H7606) and centrifuged at low speed (150×g) for 10 min (apparatus Sigma 2-15, Bioblock, Illkirch, France).
The cells were resuspended in Dulbecco's Modified Eagle Medium (DMEM; Gibco; ref. 41965-039; batch 3032129), containing 20% FBS. Viable cells were quantified and plated at 35,000/well in 96 well plates (Nunclon, Gibco) previously coated with poly-L-lysine (0.01 mg/ml, France; ref. P5899; batch 28H8504). Cells were allowed to adhere 2 h and maintained in a humidified incubator at 37° C. in 5% CO2-95% air atmosphere.
Culture medium was then changed to a medium consisting of DMEM, 10% heat-inactivated FBS, 10% heat-inactived horse serum (Gibco, ref. 16505-080; batch 3030347) and 1% L-Glutamine (Gibco, ref. 25030-024; batch 3031499).
Since the cultures were mixed populations containing both neurons and glial cells, to minimize glial growth, the cultures were treated for 2 days with 15 μg/ml of 5-fluoro-2′-deoxyuridine (Sigma; ref. F8791; batch 97H4048) and 35 μg/ml of uridine (Sigma, ref. U3003; batch 18H11965) on day 4 of culture.
Following exposure to mitotic inhibitors, one-half of the medium was removed and replaced with growth medium consisting of 89% DMEM, 10% horse serum and 1% L-glutamine.
Glutamate toxicity experiments were performed after 13 days in culture (Glutamic acid; Sigma, ref. G6904; batch 18H11381).
On day 12, twenty-four hours before glutamate exposure, cultures were washed with DMEM and placed in medium DMEM/Ham12 with supplements but without estradiol.
The reference compounds, estradiol (Sigma, ref. E8875; batch 98H40953) and DHEA (Sigma, ref. D4000; batch 97H0301), and test compound were added at concentrations of 2, 10, 50 and 100 nM. Human FGF-basic (Tebu, Le Perray-en-Yvelines, France; ref. 100-18B; batch 107R0806 E118) was included as an additional reference and was tested at 5, 10 and 20 ng/ml. All compounds were dissolved at 10 mM in ethanol 100% (LPCR, ref. 20821467; batch J109), diluted 10,000 fold in DMEM and stocked at −20° C.
The effect of the test molecule on survival of cultured neurones was investigated alone and in intoxication conditions. The effect of the ethanol was also tested at the highest concentration used for dilution of the test molecules (100 nM=0.001% ethanol).
On day 13, cultures were exposed to glutamate 0.50, 100, 150, 200, 250, 300, 400 and 500 μM for 10 min at 37° C. in DMEM/hamF12 with supplement. The effects of the 2 reference compounds and the test compound was investigated in the presence of glutamate.
After the incubation period, the cultures were washed with DMEM and placed in DMEM/Ham12 with supplement either in the absence or presence of the compound to evaluate their post intoxication effects. […]

[3] = tested on: CA1 pyramidal cell layer of organotypic hippocampal slice cultures; test: Hypoxic challenge of organotypic hippocampal slice cultures (PI fluorescence); format: cell-based, Wistar rat; settings: 180 min hypoxia, 24 h recovery, hypoxia control 27.6±3.7%
Description: Organotypic hippocampal slice cultures were prepared using the basic method of Pringle et al (1997) modified as follows:
Wistar rat pups (8-11 days old) were decapitated and the hippocampus rapidly dissected into ice-cold Goy's balanced salt solution supplemented with 4.5 mg/ml glucose. Slices were separated and plated into Millicell CM culture inserts (4 per well) and maintained at 37° C./5% CO2 for 14 days. Maintenance medium consisted of 25% heat-inactivated horse serum, 25% Hank's balanced salt solution (HBSS) and 50% minimum essential medium with added Earle's salts (MEM) supplemented with 1 mM glutamine and 4.5 mg/ml glucose.
Experimental hypoxia was performed as described previously (Pringle et al., (1996) Stroke 27, p2124-2130, (1997) Brain Research 755-46). Briefly, cultures were transferred to serum free medium (SFM—75% MEM, 25% HBSS supplemented with 1 mM glutamine and 4.5 mg/ml glucose) containing 5 μg/ml of the fluorescent exclusion dye propidium iodide (PI). Cultures were allowed to equilibrate in SFM for 60 minutes prior to imaging. PI fluorescence was detected using a standard Leica inverted microscope fitted with a rhodamine filter set (Leica N2). Any cultures in which PI fluorescence was detected at this stage were excluded from further study. Hypoxia was induced by transferring cultures to SFM (+PI) which had been saturated with 95% N2/5% CO2. Culture plates (without lids) were then sealed into an airtight chamber in which the atmosphere was saturated with 95% N2/5% CO2 by continuously blowing through gas at 1000 ml/min for ten minutes before being sealed and placed in the incubator for 170 mins (total time of hypoxia was therefore 180 mins). At the end of the hypoxia period cultures were returned to normoxic SFM containing PI and placed back in the incubator for 24 hours.
Neuronal damage was assessed as described previously (Pringle et al., 1996, 1997) using NIH Image 1.60 running on an Apple IIsi computer. Images were captured using a COHU monochrome camera and saved onto optical disk for offline analysis using NIH image. Light transmission images were captured prior to the addition of drugs, and PI fluorescence images recorded at the end of the 24 hour post-hypoxia recovery period. The areas of the CA1, CA3 and dentate gyrus (DG) cell layers were determined from the transmission image. The area of PI fluorescence in each of the cell layers was measured using the density slice function within NIH Image, and neuronal damage expressed as the percentage of the regional area in which PI fluorescence was detected above background.
Steroid compounds were prepared by making an initial 1 mg/ml solution in ethanol and further diluting down in SFM. Compounds were included in the cultures for 45 minutes prior to hypoxia, during the hypoxic episode and during the post-hypoxic recovery period. Control experiments consisted of cultures treated with vehicle alone.

[4] = tested on: estrogenic activity; settings: cited from earlier work

## 3α-hydroxy-5β-pregnan-20-one sulphate
[1]
  decrease of NMDA response: 76%

## C[C@]12CC[C@@H]3c4ccc(O)cc4CC[C@H]3[C@@H]1CC[C@@H]2O [estradiol]
[2]; primary cortical neurones
  effect on cell death in glutamate toxicity assay (FIG. 3): no effect

## CC(=O)[C@H]1CC[C@H]2[C@@H]3[C@H](O)C=C4C[C@@H](O)CC[C@]4(C)[C@H]3CC[C@]12C [7α-hydroxy-pregnenolone]
[3]; 100 nM
  neuronal damage: PI fluorescence as % of CA1: 11.6±4.0%
[2]; 10 nM, glutamate 200 μM
  less cell death in presence of glutamate: up to 10%

## C[C@]12CC[C@H](O)CC1=CC[C@@H]1[C@@H]2CC[C@]2(C)C(=O)CC[C@@H]12 [DHEA]
[2]; 10 nM
  effect on normal cell death: protect significantly
[2]; 50 nM
  effect on normal cell death: protect significantly
[2]; doses of 0, 50 and 100 nM, glutamate 200 μM
  protection of cortical neurones from glutamate neurotoxicity: failing to protect

## C[C@]12CC[C@H](O)CC1=C[C@@H](O)[C@@H]1[C@@H]2CC[C@]2(C)C(=O)CC[C@@H]12 [7α-hydroxy-DHEA]
[3]; 10 nM
  neuronal damage: PI fluorescence as % of CA1: 1.1±0.9%
[3]; concentration not given
  neuronal death in CA1: 4.3±1.3%
[2]; 10 nM
  effect on normal cell death: significantly decreased normal cell death

## C[C@]12CC[C@@H]3c4ccc(O)cc4C[C@@H](O)[C@H]3[C@@H]1CC[C@@H]2O [7α-hydroxy-estradiol, Estra-1,3,5(10)-triene 3,7α,17β-triol]
[3]; 1 nM
  neuronal damage: PI fluorescence as % of CA1: 21.5±11.3%
[3]; 10 nM
  neuronal damage: PI fluorescence as % of CA1: 13.0±4.7%
[3]; 100 nM
  neuronal damage: PI fluorescence as % of CA1: 5.9±2.1%
[4]
  estrogenic activity as fraction of that of estrone: 1/300

## CC(=O)[C@H]1CC[C@H]2[C@@H]3C(=O)C=C4C[C@@H](OS(=O)(=O)O)CC[C@]4(C)[C@H]3CC[C@]12C [7-keto-pregnenolone sulphate]
[1]
  decrease of NMDA response: 12%

## CC12CCC3c4ccc(O)cc4CC(=O)C3C1CCC2O (stereo not shown) [7-keto-estradiol]
[4]
  estrogenic activity as fraction of that of estrone: 1/300
